Data as given in ChEMBL document CHEMBL1201862, “PubChem BioAssay data set” (2004).
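The compound was tested at five concentrations on cells cultured in 96-well plates, with a 48-hour exposure period. GI50 is the concentration that inhibits growth by half.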 Calls of active or inactive are those of the source. No stated cut-off is given here; in the data, active = GI50 up to about 1.1 µM and inactive = higher.

Legend:
Test in all cases: NCI tumour cell line growth inhibition, 48 h
[1] = tested on: A498
[2] = tested on: A549
[3] = tested on: DLD-1
[4] = tested on: DMS-273
[5] = tested on: HCC 2998
[6] = tested on: HOP-18
[7] = tested on: HOP-62
[8] = tested on: HOP-92
[9] = tested on: IGROV-1
[10] = tested on: LOX IMVI
[11] = tested on: NCI-H226
[12] = tested on: NCI-H460
[13] = tested on: NCI-H522
[14] = tested on: OVCAR-4
[15] = tested on: RPMI-8226
[16] = tested on: SF-268
[17] = tested on: SK-OV-3
[18] = tested on: SW-620
[19] = tested on: U-251
[20] = tested on: UO-31

Measured: GI50

C/N=C1\S/C(=N\c2ccc(N(C)C)cc2)N1C
inactive: [1] 23 µM | [2] 43 µM | [3] 29.8 µM | [4] 54.1 µM | [5] 33.2 µM | [6] 35 µM | [7] > 100 µM | [8] 21.8 µM | [9] 51.8 µM | [10] 46 µM | [11] 52.1 µM | [12] 36.3 µM | [13] 25.8 µM | [14] 44.1 µM | [15] 34.5 µM | [16] 24.9 µM | [17] 26.8 µM | [18] 38.1 µM | [19] 33.9 µM | [20] 31.6 µM

O=C(O)C1CCCCN1C(=O)c1ccccc1 (stereo not drawn)
inactive: [1] > 100 µM | [2] > 100 µM | [3] > 100 µM | [4] > 100 µM | [5] > 100 µM | [6] > 100 µM | [7] > 100 µM | [8] > 100 µM | [9] > 100 µM | [10] > 100 µM | [12] > 100 µM | [14] > 100 µM | [15] > 100 µM | [16] > 100 µM | [17] > 100 µM | [18] > 100 µM | [19] > 100 µM | [20] > 100 µM

COc1cc([C@@H]2c3cc4c(c(O[C@@H]5O[C@H]6CO[C@@H](C)O[C@H]6[C@H](O)[C@@H]5O)c3C[C@H]3COC(=O)[C@@H]32)OCO4)cc(OC)c1O
inactive: [1] 4.11 µM | [2] 10.9 µM | [3] 27.7 µM | [4] 4.63 µM | [5] 26.9 µM | [6] 11.7 µM | [7] 27.2 µM | [8] 25.7 µM | [9] 8.61 µM | [10] 4.73 µM | [11] 3.75 µM | [12] 12.1 µM | [13] 2.54 µM | [14] 9.16 µM | [15] 47.5 µM | [17] 19.6 µM | [18] 8.3 µM | [19] 8.17 µM | [20] 45.6 µM

CC1=C[C@]2(CC(C)C3C(CC4(C)C5CCC6C(C)(C)C(=O)CC[C@@]67C[C@@]57CC[C@]34C)O2)OC1=O (stereo partly drawn)
inactive: [1] 23.7 µM | [2] 16.6 µM | [3] 11 µM | [4] 3.95 µM | [5] 18.1 µM | [6] 6.43 µM | [8] 18.1 µM | [9] 6.32 µM | [10] 3.46 µM | [11] 1.88 µM | [12] 19.4 µM | [14] 19 µM | [15] 9.2 µM | [16] 33.9 µM | [18] 12.6 µM | [19] 14.6 µM
